Results taken from US9512126B2, “Substituted imidazopyridazines” (Bayer Intellectual Property GmbH, priority 2012, dated 2016).

Key:
human kinase Mps-1 = human kinase Mps-1 (Homo sapiens (Human), UniProt P33981); test: Mps-1 kinase assay (TR-FRET); format: biochemical; settings: N-terminally GST-tagged human full length recombinant Mps-1, 10 μM ATP
Experimental: The human kinase Mps-1 phosphorylates a biotinylated substrate peptide. Detection of the phosphorylated product is achieved by time-resolved fluorescence resonance energy transfer (TR-FRET) from Europium-labelled anti-phospho-Serine/Threonine antibody as donor to streptavidin labelled with cross-linked allophycocyanin (SA-XLent) as acceptor. Compounds are tested for their inhibition of the kinase activity.
N-terminally GST-tagged human full length recombinant Mps-1 kinase (purchased from Invitrogen, Karslruhe, Germany, cat. no PV4071) was used. As substrate for the kinase reaction a biotinylated peptide of the amino-acid sequence […] (C-terminus in amide form, purchased from Biosynthan GmbH, Berlin) was used.
The concentration of Mps-1 in the assay was adjusted to the activity of the enzyme lot and was chosen appropriate to have the assay in the linear range, typical enzyme concentrations were in the range of about 1 nM (final conc. in the 5 μl assay volume).
The resulting mixture was incubated 1 h at 22° C. to allow the binding of the phosphorylated peptide to the anti-phospho(Ser/Thr)-Europium-antibody. Subsequently the amount of phosphorylated substrate was evaluated by measurement of the resonance energy transfer from the Europium-labelled anti-phospho(Ser/Thr) antibody to the Streptavidin-XLent.

[1] = In vitro metabolic stability in rat hepatocytes (including calculation of hepatic in vivo blood clearance); format: in vitro ADME; settings: Han Wistar, hepatocytes (freshly isolated, suspension), read-out: CL (hepatic in vivo blood clearance) (converted)
Experimental: Investigation of In Vitro Metabolic Stability in Rat Hepatocytes (Including Calculation of Hepatic In Vivo Blood Clearance (CL))
Hepatocytes from Han Wistar rats were isolated via a 2-step perfusion method. After perfusion, the liver was carefully removed from the rat: the liver capsule was opened and the hepatocytes were gently shaken out into a Petri dish with ice-cold WME. The resulting cell suspension was filtered through sterile gaze in 50 ml falcon tubes and centrifuged at 50×g for 3 min at room temperature. The cell pellet was resuspended in 30 ml WME and centrifuged through a Percoll® gradient for 2 times at 100×g. The hepatocytes were washed again with Williams' medium E (WME) and resuspended in medium containing 5% FCS. Cell viability was determined by trypan blue exclusion.
For the metabolic stability assay liver cells were distributed in WME containing 5% FCS to glass vials at a density of 1.0×10^6 vital cells/ml. The test compound was added to a final concentration of 1 μM. During incubation, the hepatocyte suspensions were continuously shaken and aliquots were taken at 2, 8, 16, 30, 45 and 90 min, to which equal volumes of cold methanol were immediately added.
Samples were frozen at −20° C. over night, after subsequently centrifuged for 15 minutes at 3000 rpm and the supernatant was analyzed with an Agilent 1200 HPLC-system with LCMS/MS detection.
The half-life of a test compound was determined from the concentration-time plot. From the half-life the intrinsic clearances were calculated. Together with the additional parameters liver blood flow, amount of liver cells in vivo and in vitro. The hepatic in vivo blood clearance (CL) and the maximal oral bioavailability (Fmax) was calculated. The following parameter values were used: Liver blood flow—4.2 L/h/kg rat; specific liver weight—32 g/kg rat body weight; liver cells in vivo—1.1×10^8 cells/g liver, liver cells in vitro—0.5×10^6 ml.

human kinase Mps-1, sequence (P33981 whole entry): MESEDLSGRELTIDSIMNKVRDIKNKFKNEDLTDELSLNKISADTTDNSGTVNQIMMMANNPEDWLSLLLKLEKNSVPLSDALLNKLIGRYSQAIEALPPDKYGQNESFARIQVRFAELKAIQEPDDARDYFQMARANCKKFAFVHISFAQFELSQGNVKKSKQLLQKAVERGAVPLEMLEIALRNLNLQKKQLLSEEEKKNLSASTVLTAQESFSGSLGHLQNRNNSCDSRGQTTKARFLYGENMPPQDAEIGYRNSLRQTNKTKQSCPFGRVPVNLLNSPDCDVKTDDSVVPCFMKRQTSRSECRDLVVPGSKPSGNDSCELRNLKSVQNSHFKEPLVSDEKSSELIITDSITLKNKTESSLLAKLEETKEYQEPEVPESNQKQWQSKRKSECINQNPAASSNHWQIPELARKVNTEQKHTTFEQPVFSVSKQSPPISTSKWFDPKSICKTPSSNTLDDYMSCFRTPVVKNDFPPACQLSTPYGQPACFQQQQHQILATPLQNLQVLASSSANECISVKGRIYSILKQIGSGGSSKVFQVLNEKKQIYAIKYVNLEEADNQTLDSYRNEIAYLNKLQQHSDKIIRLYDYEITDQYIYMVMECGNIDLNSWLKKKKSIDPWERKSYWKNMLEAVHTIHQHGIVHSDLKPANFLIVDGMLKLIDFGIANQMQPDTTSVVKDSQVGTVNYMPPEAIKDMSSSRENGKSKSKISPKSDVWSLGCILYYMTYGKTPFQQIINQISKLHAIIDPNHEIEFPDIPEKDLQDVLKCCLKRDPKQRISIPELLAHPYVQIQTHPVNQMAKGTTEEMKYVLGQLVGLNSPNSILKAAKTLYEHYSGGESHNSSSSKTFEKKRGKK

IC50 (human kinase Mps-1)	CLhep predicted at 1 μM [1]	SMILES
0.7 nM	21.7 mL/min/kg	Cc1cc(-c2cnc3c(NCCC(F)(F)F)cc(C(F)(F)c4cccc(F)c4)nn23)ccc1C(=O)NC1CC1 [Example 6, N-Cyclopropyl-4-{6-[difluoro(3-fluorophenyl)methyl]-8-[(3,3,3-trifluoropropyl)amino]imidazo[1,2-b]pyridazin-3-yl}-2-methylbenzamide]
–	33.3 mL/min/kg	Cc1cc(-c2cnc3c(NCCC(F)(F)F)cc(C4(c5cccc(F)c5)CC4)nn23)ccc1C(=O)NC1CC1 [Example 25, N-cyclopropyl-4-{6-[1-(3-fluorophenyl)cyclopropyl]-8-[(3,3,3-trifluoropropyl)amino]imidazo[1,2-b]pyridazin-3-yl}-2-methylbenzamide]
